In patent publication US20130123168A1, “HUMANIN AND HUMANIN-ANALOGUES FOR THE MANAGEMENT OF ATHEROSCLEROSIS” (The Regents of the University of California, priority 2011, published 2013):
Entries after “also recorded” stand apart in the source; their conditions may differ.

Key:
NIT cells = conditions: cited from earlier work
[1] = tested on: atherosclerotic plaques in proximal aorta; test: Morphometric analysis of plaque size in proximal aorta cross sections; type: in vivo, mice; conditions: IP 0.4 mg/kg/day, 16 weeks
[2] = tested on: atherosclerotic plaque in the aortic arch; test: TUNEL staining of apoptotic cells in plaques of the aortic arch; type: in vivo; conditions: Group 4: ApoE-deficient mice, high cholesterol diet
Experimental: The effect of HNGF6A on mice was studied in 4 different animal groups (n=12 per group); Group 1: C57BL/6 feed normal diet+intraperitoneal (IP) saline, Group 2: C57BL/6 feed normal diet+IP HNGF6A, Group 3: ApoE-deficient feed high cholesterol diet+IP saline, and Group 4: ApoE-deficient feed high cholesterol diet+IP HNGF6A (Group 4). Experiment was conducted over the course of 16 weeks. Female C57BL/6 mice and Apo E-deficient mice were obtained at the age of 4 weeks from Jackson Laboratory Animals had free access to water, were maintained at 24° C., and kept at a 12 hr light/dark cycle. Depending on the study group, the mice were treated with a normal diet or high cholesterol diet (HC, 0.15% cholesterol and 42% milk fat by weight, TD88137 or “Western diet”; Harlan Teklad) and received intraperitoneal injection (IP) of saline or HNGF6A (glycine variant of HN, 0.4 mg/kg/day, Peptide International, Louisville, Ky.) for 16 weeks. […] Blood samples were collected by cardiac puncture. Terminal deoxynucleotidyl transferase dUTP nick end labeling (TUNEL) was performed using the in situ Apoptosis Detection Kit (S7100-KIT; Chemicon). The procedure was performed following the manufacturers' protocol. […] The number of positive cells in atherosclerotic plaque was counted using x400 magnification. […] Data was expressed as mean±SEM. […]

[3] = tested on: human aortic endothelial cells (HAECs); test: Ox-LDL induced ROS production, dihydroethidium (DHE) fluorescence; type: cell-based
Experimental: Prior studies have reported that treatment of vascular endothelial cells with oxidized low density lipoprotein (LDL) stimulates reactive oxygen species (ROS) formation. To test whether humanin (HN) affects Ox-LDL induced ROS production in endothelial cells, the fluorescent probe dihydroethidium was utilized in order to detect superoxide in living cells. DHE fluorescence was measured in human aortic endothelial cells (HAECs) preincubated with HN and subsequently exposed to Ox-LDL. Intracellular ROS production was monitored by following the conversion of the oxidant sensitive dye dihydroethidine to fluorescent ethidium.
To accomplish this, as described in Bachar et al. (2010) Cardiovasc. Res. 88(2):360-6 (incorporated by reference in its entirety). […] Fluorescent images were then taken with an inverted fluorescent microscope (Olympus IX70) at 15× magnification using appropriate filters fro ethidium fluorescence. Ten to twelve non-overlapping images in each culture dish were acquired and quantified by image analysis using Metamorph software (Molecular Devices). Only those cells whose fluorescence exceeded twice the basal level of fluorescence of non-treated cells were used for quantification of DHE fluorescence. Values are expressed as average relative fluorescence units for n≧100 cells per experimental condition in 2 independent experiments. […]

[4] = tested on: human aortic endothelial cells (HAECs); test: TUNEL assay of Ox-LDL induced apoptosis in HAEC; type: cell-based; conditions: pre-incubated overnight with 0.1 μM, then 100 μg/ml Ox-LDL for 6 hours
Experimental: To accomplish this, a TUNEL assay was applied to measure the levels of apoptosis in HAECs treated with or without HN prior to exposure with Ox-LDL (FIG. 2). HAECs were plated on glass cover slips and incubated overnight with or without added HN (0.1 μM). The cells were then exposed to Ox-LDL (100 μg/ml; Biomedical Technologies Inc.) for 6 hours at 37° C. in the absence of HN. Apoptotic cells were quantified by TUNEL assay using the In Situ Death Detection Kit® (Roche Applied Science), mounted in SlowFade containing DAPI (Invitrogen) and observed by flourescent microscope. Apoptotic cells were defined based in morphological changes in the nuclei and the fluorescent intensity after TUNEL staining. The apoptotic index (AI)=(number of apoptotic cells)/(total number of cells)

[5] = tested on: human aortic endothelial cells (HAECs); test: Cellular ceramide levels by HPLC/MS/MS after Ox-LDL; type: cell-based; conditions: 0.1 μM overnight, then Ox-LDL 100 μg/ml for 6 hours
Experimental: HAECs were plated on glass cover slips and incubated overnight with or without added HN (0.1 μM). The cells were then exposed to Ox-LDL (100 μg/ml; Biomedical Technologies Inc.) for 6 hours. Cells were then scraped into PBS, pelleted and frozen in liquid nitrogen. These samples were sent to MUSC-lipidomics core (Lipidomics Analytical Unit) for processing to detect and quantify individual ceramide species by HPLC/MS/MS.

F6AK21A-HNG: SEQ ID NO:17 MAPRGASCLLLLTGEIDLPVARRA (listed as Homo sapiens)
potency compared to humanin in promoting survival and activating STAT-3 and ERK (NIT cells): even greater potency

HNGF6A: HN analogue, SEQ ID NO:16 MAPRGASCLLLLTGEIDLPVKRRA (listed as Homo sapiens)
presence of plaque in aorta ([1]; Group 2: C57BL/6 mice, normal diet, 0.4 mg/kg/day): Plaques were not visible; also recorded: no plaque was apparent
plaque size ([1]; Group 4: ApoE-deficient mice, high cholesterol diet): 0.01±0.003 mm^2
numbers of apoptotic cells in plaques compared to Group 3 (in words) ([2]; IP): significantly decreased
number of apoptotic cells in plaques in the aortic arch ([2]; IP 0.4 mg/kg/day, 16 weeks, mean±SEM): 84±17 cells/mm^2
potency compared to humanin in promoting survival and activating STAT-3 and ERK (NIT cells): even greater potency

Z-FIN: SEQ ID NO:18 MAKRGLNCLPHQVSEIDLSVQKRI (listed as Homo sapiens)
potency compared to humanin in promoting survival and activating STAT-3 and ERK (NIT cells): two-fold greater potency than humanin

humanin (MAPRGFSCLLLLTSEIDLPVKRRA; listed as Homo sapiens) [HN]
decrease in ROS production ([3]; HN pretreatment overnight prior to Ox-LDL (100 μg/ml, 30 min) exposure): approximately 50%
decrease in Ox-LDL induced ROS formation, dose dependence ([3]; HN titration): dose-dependent manner
relative decrease in apoptosis compared to cells without pretreatment [4]: more than 50%
total cellular amount of ceramides, including C16-ceramide [5]: decrease
